#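 How tested: cells in 96-well plates exposed to compound for 48 hours at five concentrations. GI50 marks 50% less growth. TGI denotes the concentration required for complete inhibition of growth.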
# Tests used:
# Experiment in all cases: inhibition of tumour cell growth, NCI panel, 48 h
# OVCAR-5 ovarian = tested on: OVCAR-5 ovarian
# NCI-H460 lung = tested on: NCI-H460 lung
# 786-0 renal = tested on: 786-0 renal
# SNB-19 CNS = tested on: SNB-19 CNS
# RPMI-8226 leukemia = tested on: RPMI-8226 leukemia
# SK-MEL-2 melanoma = tested on: SK-MEL-2 melanoma
# SK-MEL-28 melanoma = tested on: SK-MEL-28 melanoma
# U251 CNS = tested on: U251 CNS
# LXFL 529 NSCLC = tested on: LXFL 529 NSCLC
# TK-10 renal = tested on: TK-10 renal
# SK-MEL-5 melanoma = tested on: SK-MEL-5 melanoma
# NCI-H226 lung = tested on: NCI-H226 lung
# MALME-3M melanoma = tested on: MALME-3M melanoma
# HT29 colon = tested on: HT29 colon
# K-562 leukemia = tested on: K-562 leukemia
# EKVX NSCLC = tested on: EKVX NSCLC
# UACC-62 melanoma = tested on: UACC-62 melanoma
# IGROV1 ovarian = tested on: IGROV1 ovarian
# MOLT-4 leukemia = tested on: MOLT-4 leukemia
# SF-539 CNS = tested on: SF-539 CNS
# CAKI-1 renal = tested on: CAKI-1 renal
# HL-60(TB) leukemia = tested on: HL-60(TB) leukemia
# OVCAR-8 ovarian = tested on: OVCAR-8 ovarian
# A498 renal = tested on: A498 renal
# HCT-15 colon = tested on: HCT-15 colon
# HOP-62 NSCLC = tested on: HOP-62 NSCLC
# UACC-257 melanoma = tested on: UACC-257 melanoma
# OVCAR-4 ovarian = tested on: OVCAR-4 ovarian
# UO-31 renal = tested on: UO-31 renal
# HCT-116 colon = tested on: HCT-116 colon
# HOP-92 NSCLC = tested on: HOP-92 NSCLC
# SNB-75 CNS = tested on: SNB-75 CNS
# COLO 205 colon = tested on: COLO 205 colon
# SF-268 CNS = tested on: SF-268 CNS
# SW-620 colon = tested on: SW-620 colon
# SK-OV-3 ovarian = tested on: SK-OV-3 ovarian
# M14 melanoma = tested on: M14 melanoma
# A549 NSCLC = tested on: A549 NSCLC
# LOX IMVI melanoma = tested on: LOX IMVI melanoma
# RXF 393 renal = tested on: RXF 393 renal
# OVCAR-3 ovarian = tested on: OVCAR-3 ovarian
# NCI-H522 lung = tested on: NCI-H522 lung
# M19-MEL melanoma = tested on: M19-MEL melanoma
# DMS 273 small cell lung = tested on: DMS 273 small cell lung
# KM20L2 colon = tested on: KM20L2 colon
# SN12C renal = tested on: SN12C renal
# KM12 colon = tested on: KM12 colon
# DLD-1 colon = tested on: DLD-1 colon
# NCI-H23 lung = tested on: NCI-H23 lung
# CCRF-CEM leukemia = tested on: CCRF-CEM leukemia
# SF-295 CNS = tested on: SF-295 CNS
# ACHN renal = tested on: ACHN renal
# DMS 114 small cell lung = tested on: DMS 114 small cell lung
# HCC-2998 colon = tested on: HCC-2998 colon
# HOP-18 NSCLC = tested on: HOP-18 NSCLC
# SR leukemia = tested on: SR leukemia
# SNB-78 CNS = tested on: SNB-78 CNS
structure (smiles),measurement,setting,value
CC(=O)[CH-]C(=O)c1ccccc1.CC(=O)[CH-]C(=O)c1ccccc1.CCCCCCCCCCCCCCCCCC(=O)[O-].CCCCCCCCCCCCCCCCCC(=O)[O-].[Ti+4],GI50,OVCAR-5 ovarian,36.7 µM
same,TGI,OVCAR-5 ovarian,> 100 µM
same,GI50,NCI-H460 lung,30.7 µM
same,TGI,NCI-H460 lung,95.7 µM
same,GI50,786-0 renal,18.8 µM
same,TGI,786-0 renal,33.2 µM
same,GI50,SNB-19 CNS,17.5 µM
same,TGI,SNB-19 CNS,33.6 µM
same,GI50,RPMI-8226 leukemia,21.6 µM
same,TGI,RPMI-8226 leukemia,55.4 µM
same,GI50,SK-MEL-2 melanoma,21.7 µM
same,TGI,SK-MEL-2 melanoma,52.4 µM
same,GI50,SK-MEL-28 melanoma,23.7 µM
same,TGI,SK-MEL-28 melanoma,60.5 µM
same,GI50,U251 CNS,20.3 µM
same,TGI,U251 CNS,41.4 µM
same,GI50,LXFL 529 NSCLC,18 µM
same,TGI,LXFL 529 NSCLC,34.6 µM
same,GI50,TK-10 renal,34.8 µM
same,TGI,TK-10 renal,99.1 µM
same,GI50,SK-MEL-5 melanoma,21 µM
same,TGI,SK-MEL-5 melanoma,48.2 µM
same,GI50,NCI-H226 lung,14.5 µM
same,TGI,NCI-H226 lung,34.3 µM
same,GI50,MALME-3M melanoma,36.7 µM
same,TGI,MALME-3M melanoma,> 100 µM
same,GI50,HT29 colon,20.8 µM
same,TGI,HT29 colon,44.9 µM
same,GI50,K-562 leukemia,22.3 µM
same,TGI,K-562 leukemia,62.1 µM
same,GI50,EKVX NSCLC,74.2 µM
same,TGI,EKVX NSCLC,> 100 µM
same,GI50,UACC-62 melanoma,18.7 µM
same,TGI,UACC-62 melanoma,41.5 µM
same,GI50,IGROV1 ovarian,34.9 µM
same,TGI,IGROV1 ovarian,> 100 µM
same,GI50,MOLT-4 leukemia,21.7 µM
same,TGI,MOLT-4 leukemia,62 µM
same,GI50,SF-539 CNS,17.2 µM
same,TGI,SF-539 CNS,31.3 µM
same,GI50,CAKI-1 renal,19.8 µM
same,TGI,CAKI-1 renal,39.9 µM
same,GI50,HL-60(TB) leukemia,19.3 µM
same,TGI,HL-60(TB) leukemia,43.9 µM
same,GI50,OVCAR-8 ovarian,22.6 µM
same,TGI,OVCAR-8 ovarian,48.3 µM
same,GI50,A498 renal,25.7 µM
same,TGI,A498 renal,68.5 µM
same,GI50,HCT-15 colon,32.9 µM
same,TGI,HCT-15 colon,69.6 µM
same,GI50,HOP-62 NSCLC,30.7 µM
same,TGI,HOP-62 NSCLC,90.9 µM
same,GI50,UACC-257 melanoma,24.6 µM
same,TGI,UACC-257 melanoma,68.5 µM
same,GI50,OVCAR-4 ovarian,16.6 µM
same,TGI,OVCAR-4 ovarian,31.8 µM
same,GI50,UO-31 renal,13.8 µM
same,TGI,UO-31 renal,26.7 µM
same,GI50,HCT-116 colon,18.3 µM
same,TGI,HCT-116 colon,36.5 µM
same,GI50,HOP-92 NSCLC,17 µM
same,TGI,HOP-92 NSCLC,33.9 µM
same,GI50,SNB-75 CNS,11.7 µM
same,TGI,SNB-75 CNS,25.5 µM
same,GI50,COLO 205 colon,87.4 µM
same,TGI,COLO 205 colon,> 100 µM
same,GI50,SF-268 CNS,21.6 µM
same,TGI,SF-268 CNS,47.6 µM
same,GI50,SW-620 colon,33.3 µM
same,TGI,SW-620 colon,> 100 µM
same,GI50,SK-OV-3 ovarian,21.9 µM
same,TGI,SK-OV-3 ovarian,37.9 µM
same,GI50,M14 melanoma,17.4 µM
same,TGI,M14 melanoma,31.9 µM
same,GI50,A549 NSCLC,19 µM
same,TGI,A549 NSCLC,37.3 µM
same,GI50,LOX IMVI melanoma,18 µM
same,TGI,LOX IMVI melanoma,35.9 µM
same,GI50,RXF 393 renal,19.7 µM
same,TGI,RXF 393 renal,33.9 µM
same,GI50,OVCAR-3 ovarian,18.9 µM
same,TGI,OVCAR-3 ovarian,38 µM
same,GI50,NCI-H522 lung,23.1 µM
same,TGI,NCI-H522 lung,62.4 µM
same,GI50,M19-MEL melanoma,27.6 µM
same,TGI,M19-MEL melanoma,97.9 µM
same,GI50,DMS 273 small cell lung,20.1 µM
same,TGI,DMS 273 small cell lung,38.7 µM
same,GI50,KM20L2 colon,33.9 µM
same,TGI,KM20L2 colon,> 100 µM
same,GI50,SN12C renal,29.9 µM
same,TGI,SN12C renal,73.5 µM
same,GI50,KM12 colon,33.6 µM
same,TGI,KM12 colon,> 100 µM
same,GI50,DLD-1 colon,31.7 µM
same,TGI,DLD-1 colon,> 100 µM
same,GI50,NCI-H23 lung,36.1 µM
same,TGI,NCI-H23 lung,> 100 µM
same,GI50,CCRF-CEM leukemia,23.2 µM
same,TGI,CCRF-CEM leukemia,86.3 µM
same,GI50,SF-295 CNS,19.5 µM
same,TGI,SF-295 CNS,34.3 µM
CSC1=NC=CCN1C,TGI,OVCAR-5 ovarian,> 100 µM
same,TGI,NCI-H460 lung,> 100 µM
same,TGI,786-0 renal,> 100 µM
same,TGI,SNB-19 CNS,> 100 µM
same,TGI,RPMI-8226 leukemia,> 100 µM
same,TGI,SK-MEL-2 melanoma,> 100 µM
same,TGI,SK-MEL-28 melanoma,> 100 µM
same,TGI,U251 CNS,> 100 µM
same,TGI,LXFL 529 NSCLC,> 100 µM
same,TGI,TK-10 renal,> 100 µM
same,TGI,ACHN renal,> 100 µM
same,TGI,SK-MEL-5 melanoma,> 100 µM
same,TGI,NCI-H226 lung,> 100 µM
same,TGI,MALME-3M melanoma,> 100 µM
same,TGI,HT29 colon,> 100 µM
same,TGI,K-562 leukemia,> 100 µM
same,TGI,EKVX NSCLC,> 100 µM
same,TGI,UACC-62 melanoma,> 100 µM
same,TGI,IGROV1 ovarian,> 100 µM
same,TGI,MOLT-4 leukemia,> 100 µM
same,TGI,CAKI-1 renal,> 100 µM
same,TGI,HL-60(TB) leukemia,> 100 µM
same,TGI,OVCAR-8 ovarian,> 100 µM
same,TGI,A498 renal,> 100 µM
same,TGI,HCT-15 colon,> 100 µM
same,TGI,HOP-62 NSCLC,> 100 µM
same,TGI,UACC-257 melanoma,> 100 µM
same,TGI,OVCAR-4 ovarian,> 100 µM
same,TGI,UO-31 renal,> 100 µM
same,TGI,DMS 114 small cell lung,> 100 µM
same,TGI,HCT-116 colon,> 100 µM
same,TGI,SNB-75 CNS,> 100 µM
same,TGI,COLO 205 colon,> 100 µM
same,TGI,SF-268 CNS,> 100 µM
same,TGI,SW-620 colon,> 100 µM
same,TGI,HCC-2998 colon,> 100 µM
same,TGI,SK-OV-3 ovarian,> 100 µM
same,TGI,M14 melanoma,> 100 µM
same,TGI,A549 NSCLC,> 100 µM
same,TGI,LOX IMVI melanoma,> 100 µM
same,TGI,OVCAR-3 ovarian,> 100 µM
same,TGI,NCI-H522 lung,> 100 µM
same,TGI,M19-MEL melanoma,> 100 µM
same,TGI,DMS 273 small cell lung,> 100 µM
same,TGI,KM20L2 colon,> 100 µM
same,TGI,SN12C renal,> 100 µM
same,TGI,KM12 colon,> 100 µM
same,TGI,DLD-1 colon,> 100 µM
same,TGI,NCI-H23 lung,> 100 µM
same,TGI,HOP-18 NSCLC,> 100 µM
same,TGI,CCRF-CEM leukemia,> 100 µM
same,TGI,SF-295 CNS,> 100 µM
COc1cc2c(c3c1C=CCO3)C(=O)c1ccccc1C2=O,TGI,OVCAR-5 ovarian,> 100 µM
same,TGI,NCI-H460 lung,> 100 µM
same,TGI,786-0 renal,> 100 µM
same,TGI,SNB-19 CNS,> 100 µM
same,TGI,RPMI-8226 leukemia,> 100 µM
same,TGI,SK-MEL-2 melanoma,> 100 µM
same,TGI,SK-MEL-28 melanoma,> 100 µM
same,TGI,U251 CNS,> 100 µM
same,TGI,LXFL 529 NSCLC,> 100 µM
same,TGI,TK-10 renal,> 100 µM
same,TGI,ACHN renal,> 100 µM
same,TGI,SK-MEL-5 melanoma,78.6 µM
same,TGI,NCI-H226 lung,97.8 µM
same,TGI,MALME-3M melanoma,> 100 µM
same,TGI,HT29 colon,> 100 µM
same,TGI,K-562 leukemia,> 100 µM
same,TGI,EKVX NSCLC,> 100 µM
same,TGI,UACC-62 melanoma,> 100 µM
same,TGI,IGROV1 ovarian,78.5 µM
same,TGI,MOLT-4 leukemia,79.2 µM
same,TGI,SF-539 CNS,> 100 µM
same,TGI,HL-60(TB) leukemia,57.7 µM
same,TGI,OVCAR-8 ovarian,> 100 µM
same,TGI,HCT-15 colon,> 100 µM
same,TGI,HOP-62 NSCLC,> 100 µM
same,TGI,UACC-257 melanoma,68.9 µM
same,TGI,SR leukemia,> 100 µM
same,TGI,UO-31 renal,> 100 µM
same,TGI,DMS 114 small cell lung,> 100 µM
same,TGI,HCT-116 colon,> 100 µM
same,TGI,HOP-92 NSCLC,> 100 µM
same,TGI,SNB-75 CNS,> 100 µM
same,TGI,COLO 205 colon,39.8 µM
same,TGI,SNB-78 CNS,> 100 µM
same,TGI,SF-268 CNS,> 100 µM
same,TGI,SW-620 colon,97.9 µM
same,TGI,HCC-2998 colon,> 100 µM
same,TGI,SK-OV-3 ovarian,> 100 µM
same,TGI,M14 melanoma,> 100 µM
same,TGI,A549 NSCLC,> 100 µM
same,TGI,LOX IMVI melanoma,78.6 µM
same,TGI,RXF 393 renal,> 100 µM
same,TGI,OVCAR-3 ovarian,> 100 µM
same,TGI,NCI-H522 lung,> 100 µM
same,TGI,M19-MEL melanoma,> 100 µM
same,TGI,DMS 273 small cell lung,> 100 µM
same,TGI,KM20L2 colon,> 100 µM
same,TGI,SN12C renal,> 100 µM
same,TGI,KM12 colon,> 100 µM
same,TGI,DLD-1 colon,71.1 µM
same,TGI,NCI-H23 lung,> 100 µM
same,TGI,HOP-18 NSCLC,> 100 µM
same,TGI,CCRF-CEM leukemia,66.4 µM
same,TGI,SF-295 CNS,> 100 µM
